Where two headings read alike, the source gives them in different places. No end group written: not given here.
Legend:
[1] = system: THP-1 macrophages; experiment: Cytotoxicity against THP-1 macrophages (CellTiter-Blue); assay type: cell-based, human
Method: THP-1 (human acute monocytic leukemia-derived) host macrophages were cultured in RPMI 1640 supplemented with 10% FCS and a penicillin-streptomycin antibiotic solution (10,000 U/mL penicillin, 10,000 μg/mL streptomycin) at 37°C with 5% CO2. THP-1 cells were incubated with 0.25 μM phorbol 12-myristate […] (PMA) for 48 h to differentiate into mature macrophages. Differentiated macrophages were seeded into 96-well plates at 5 × 10^6 cells/mL and incubated for 48 h in the presence of 20 μM antimicrobial peptides along with the appropriate solvent controls. Cell viability assays were conducted using CellTiter-Blue (Promega), based on resazurin reduction. After the 48-h incubation period, CellTiter-Blue reagent was added to cells for 4 h at 37°C, and fluorescence was measured (555-nm excitation/580-nm emission) using a FlexStation 3 benchtop multimode reader (Molecular Devices). Each assay was performed in triplicate. The CC50 values were calculated by nonlinear regression analysis using GraphPad Prism 9.0 for Windows.

[2] = system: Leishmania donovani axenic amastigotes
Method: We utilized a previously developed high-throughput screening assay using transgenic axenic amastigotes expressing a red fluorescent protein, mCherry. Changes in mCherry fluorescence were normalized to 50 μM miltefosine in order to quantify parasite inhibition ([52]). In total, 5 scaffold 25-mer peptides and 475 synthetic 25-mer peptide variants were screened (Fig. 1). […] The assay was repeated, and the average percent parasite killing was determined.
Axenic amastigotes were differentiated as described previously ([69]).
Axenic amastigotes were differentiated as described previously ([69]); briefly, transgenic L. donovani promastigotes expressing mCherry were differentiated by pH and temperature shifts. Amastigotes were seeded into 96-well plates at 5 × 10^6 cells/mL and incubated for 48 h in the presence of decreasing drug concentrations, starting at 20 μM, along with the appropriate solvent controls. Fluorescence was monitored (587-nm excitation/610-nm emission) over 48 h using a FlexStation 3 benchtop multimode reader (Molecular Devices). […] Thus, changes in mCherry fluorescence were normalized to the 50 μM miltefosine control in order to quantify parasite inhibition. Each assay was performed in triplicate. The IC50 values were calculated by nonlinear regression analysis using GraphPad Prism 9.0 for Windows.

[3] = read-out: Axenic amastigotes Mean IC50 ± SD, L. donovani mCherry axenic amastigotes, 48 h, fluorescence normalized to 50 μM miltefosine, highest concentration 20 μM, mean of three replicates
[4] = read-out: Axenic amastigotes Mean IC50 ± SD

| Sequence | THP-1 macrophage CC50 [1] | IC50 [2, 3] [µM] | THP-1 macrophage CC50 ([1]; 48 h) [µM] | IC50 ([2]; 48 h) [µM] | IC50 [2, 4] [µM] |
| --- | --- | --- | --- | --- | --- |
| AGKETIRQFLKKKIQEGKKRATIAW [Syn-larvacin-4] | below 20 μM | 1.09 |  |  |  |
| AGKETIRQFLKKKIQEGKKRATIWW [Syn-larvacin-68] | < 20 µM | 1.31 |  |  |  |
| AGKETIRQFLKKKIQEKGKIAKRAW [Syn-larvacin-94] | < 20 µM | 18.2 |  |  |  |
| AGKETIRQFLKKKIQEKGKIATRWW [Syn-larvacin-70] | < 20 µM | 0.3 |  |  |  |
| AGKETIRQFLKKKIQEKGKRATIWW [Syn-larvacin-65] | < 20 µM | 0.31 |  |  |  |
| AGKETIRQFLKKKIQEKKKRATIAW [Syn-larvacin-81] | < 20 µM | 0.26 |  |  |  |
| AGKETIRQFLKKKIQEWKKRATIAW [Syn-larvacin-44] | < 20 µM | 0.47 |  |  |  |
| AGKETIRQFLKKRIQEKGKRAKIAW [Syn-larvacin-93] | < 20 µM | 2.46 |  |  |  |
| AGKETIRQFLKKTIQEKGKRAKIWW [Syn-larvacin 69] | > 20 µM |  | >20 | 4.14 ± 0.11 |  |
| AGKETIRQKLKNEIKKKGRKAVIAW [Syn-safencin 7] | > 20 µM |  | >20 | 0.77 ± 0.08 |  |
| AGKETIRQKWKNEIKKKGRKAVIAW [Syn-safencin-39] | < 20 µM | 0.72 |  |  |  |
| AGKETIRQYLKNEIKKKGRKAVIWW [Syn-safencin-81] | < 20 µM | 3.15 |  |  |  |
| AGKETIRQYLKNEIKKKGRKAVWAW [Syn-safencin 73] | > 20 µM |  | >20 | 0.35 ± 0.08 |  |
| AGKETIRQYLKNEIKKKGRKAWIAW [Syn-safencin-65] | < 20 µM | 1.01 |  |  |  |
| AGKETIRQYLKNKIKKKWRKAVIAW [Syn-safencin-51] | < 20 µM | 6.36 |  |  |  |
| AGKETIRQYLKNKWKKKGRKAVIAW [Syn-safencin-43] | < 20 µM | 11.2 |  |  |  |
| AGKETIRQYWKNKIKKKGRKAVIAW [Syn-safencin-35] | < 20 µM | 0.29 |  |  |  |
| AGKETIRWFLKKKIWEGKKRATIAW [Syn-larvacin-52] | < 20 µM | 1.86 |  |  |  |
| AGKEWIFQRLKKKIQEKGKRATIAW [Syn-larvacin-19] | < 20 µM | 0.73 |  |  |  |
| AGKKTIRQYLKNEIKKKGRKAVIAW [Syn-safencin 2] | > 20 µM |  | >20 | 2.42 ± 0.09 |  |
| AGKKTIRQYLKNEIKKKGRKAVIWW [Syn-safencin 82] | > 20 µM |  | >20 | 0.375 ± 0.1 |  |
| AGKKTIRQYLKNEIKKKGRKAVWAW [Syn-safencin-74] | < 20 µM | 3.51 |  |  |  |
| AGKKTIRQYLKNEIKKKGRKAWIAW [Syn-safencin 66] | > 20 µM |  | >20 | 3.64 ± 0.1 |  |
| AGKKTIRQYLKNKIKKKGRKAVWAW [Syn-safencin-76] | < 20 µM | 16.3 |  |  |  |
| AGKKTIRQYLKNKIKKKGRKAWIAW [Syn-safencin-68] | < 20 µM | 0.56 |  |  |  |
| AGKKTIRQYLKNKIKKKGRKWVIAW [Syn-safencin-60] | < 20 µM | 1.31 |  |  |  |
| AGKKTIRQYLKNKIKKKWRKAVIAW [Syn-safencin-52] | < 20 µM | 0.58 |  |  |  |

| Sequence | THP-1 macrophage CC50 [1] | IC50 [2, 3] [µM] | THP-1 macrophage CC50 ([1]; 48 h) [µM] | IC50 ([2]; 48 h) [µM] | IC50 [2, 4] [µM] |
| --- | --- | --- | --- | --- | --- |
| AGKKTIRQYLKNKWKKKGRKAVIAW [Syn-safencin-44] | < 20 µM | 0.63 |  |  |  |
| AGKKTIRQYWKNKIKKKGRKAVIAW [Syn-safencin-36] | < 20 µM | 1.29 |  |  |  |
| AGRQALTKYLLEELRKRGKKWFIAW [Syn-xiamencin-36] | < 20 µM |  |  |  | 1.52 |
| AGRQALTKYLLEELRKRWKKAFIAW [Syn-xiamencin-20] | < 20 µM | 0.47 |  |  |  |
| AGRQALTLELKEYLRKRWKKAFIAW [Syn-xiamencin-19] | < 20 µM | 2.15 |  |  |  |
| AGRQALTLYLKEELRKFGKKWRIAW [Syn-xiamencin-37] | < 20 µM |  |  |  | 3.71 |
| AGRQALTLYLKEELRKFWKKARIAW [Syn-xiamencin-21] | < 20 µM | 0.59 |  |  |  |
| AGRQALTLYLKEELRKRGKKWFIAW [Syn-xiamencin-33] | < 20 µM | 2.66 |  |  |  |
| AGRQALTLYLKEELRKRWKIAFKAW [Syn-xiamencin-22] | < 20 µM | 2.21 |  |  |  |
| AGRQALWKYLLEELRKRGKKAFIAW [Syn-xiamencin-44] | < 20 µM |  |  |  | 1.18 |
| AGRQALWLYLKEELRKFGKKARIAW [Syn-xiamencin-45] | < 20 µM |  |  |  | 6.13 |
| AGRQALWLYLKEELRKRGKIAFKAW [Syn-xiamencin-46] | < 20 µM |  |  |  | 11.8 |
| AGRQWLTLELKEYLRKRGKKAFIAW [Syn-xiamencin-51] | < 20 µM | 3.66 |  |  |  |
| AGRQWLTLYLKEELRKFGKKARIAW [Syn-xiamencin-53] | < 20 µM | 14.8 |  |  |  |
| AGRQWLTLYLKEELRKRGKIAFKAW [Syn-xiamencin-54] | < 20 µM | 7.79 |  |  |  |
| AGRQWLTLYLKEELRKRGKKAFIAW [Syn-xiamencin-49] | < 20 µM |  |  |  | 9.22 |
| AGSERIAKELKKYIKKGKKWIRAAW [Syn-enterocin-64] | < 20 µM | 0.42 |  |  |  |
| AGSERIAKELKKYIKKWKKVIRAAW [Syn-enterocin-48] | < 20 µM | 1.21 |  |  |  |
| AGTEKIFNRLKKWINEGKKIAKRAW [Syn-larvacin-32] | < 20 µM | 0.23 |  |  |  |
| AGTEKIFQRLKKTIQEGKKIAKRAW [Syn-larvacin-7] | below 20 μM | 5.61 |  |  |  |
| AGTEKIFQRLKKTIQEWKKIAKRAW [Syn-larvacin-47] | < 20 µM | 1.1 |  |  |  |
| AGTEKIFQRLKKWIQEGKKIAKRAW [Syn-larvacin-31] | < 20 µM |  |  |  | 3.8 |
| AGWQRLTLYLKEELRKRGKKAFIAW [Syn-xiamencin-50] | < 20 µM |  |  |  | 3.74 |
| AWANRLTKELLEYLRKFGKIARKAW [Syn-xiamencin-32] | < 20 µM | 0.89 |  |  |  |
| AWAQRLTKELLEYLRKFGKIARKAW [Syn-xiamencin-31] | < 20 µM | 4.82 |  |  |  |
| AWKETIFQRLKKKIQEKGKRATIAW [Syn-larvacin 35] | > 20 µM |  | >20 | 0.63 ± 0.14 |  |
| AWKETIRKYLKNEIKKKGRKAVIAW [Syn-safencin-22] | < 20 µM | 1.18 |  |  |  |

Reference: paper PMC9769502 (Microbiology Spectrum, 2022)
